Measurements reported in patent publication US5028730A, “Antihypercholesterolemic nitrile compounds” (Bristol-Myers Company, priority 1990, dated 1991).

Biological target: T1, microsomal form of rat liver HMG-CoA reductase (Rattus norvegicus, UniProt P51639)
T1 construct: from tissue; host or cells: rat liver microsomes
T1 sequence (P51639 1-887): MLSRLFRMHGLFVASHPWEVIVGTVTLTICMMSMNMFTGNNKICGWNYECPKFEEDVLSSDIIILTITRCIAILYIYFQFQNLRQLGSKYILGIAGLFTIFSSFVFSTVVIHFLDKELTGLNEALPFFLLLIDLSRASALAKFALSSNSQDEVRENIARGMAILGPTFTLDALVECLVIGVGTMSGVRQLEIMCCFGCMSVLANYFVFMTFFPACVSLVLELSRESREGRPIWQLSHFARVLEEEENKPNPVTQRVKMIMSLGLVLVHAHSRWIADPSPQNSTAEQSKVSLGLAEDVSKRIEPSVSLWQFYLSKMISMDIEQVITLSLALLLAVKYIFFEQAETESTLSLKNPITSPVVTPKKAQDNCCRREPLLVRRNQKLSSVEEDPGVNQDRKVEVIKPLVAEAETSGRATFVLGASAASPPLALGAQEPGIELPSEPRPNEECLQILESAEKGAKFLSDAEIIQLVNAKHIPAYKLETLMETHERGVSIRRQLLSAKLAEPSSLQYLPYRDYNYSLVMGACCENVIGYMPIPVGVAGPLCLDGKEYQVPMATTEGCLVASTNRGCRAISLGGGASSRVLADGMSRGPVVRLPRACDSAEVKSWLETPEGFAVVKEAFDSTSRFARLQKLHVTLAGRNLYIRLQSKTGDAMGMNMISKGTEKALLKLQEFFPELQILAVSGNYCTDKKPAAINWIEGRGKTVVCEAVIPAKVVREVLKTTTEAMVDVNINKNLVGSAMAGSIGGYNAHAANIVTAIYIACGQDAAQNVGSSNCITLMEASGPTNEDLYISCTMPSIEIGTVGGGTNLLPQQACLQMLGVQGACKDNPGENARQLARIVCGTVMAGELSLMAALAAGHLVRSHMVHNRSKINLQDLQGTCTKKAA
Experiment: In Vitro Inhibition of Microsomal HMG-CoA Reductase
Assay type: biochemical
Details: 50 percent inhibitory concentration, rat liver microsomes, [3-14C]-HMG-CoA 0.33 mM, NADPH 3.0 mM, pH 7.2, at least 4 dilutions in duplicate
Method: The intact, fully activated microsomal form of rat liver HMG-CoA reductase (subunit MW ca 100,000 daltons) was prepared as described by Parker, et al., Biochem. Biophys. Res. Commun., 125, 629-635 (1984), and used as the source of enzyme for assays. HMG-CoA reductase activity was determined essentially by the method of Shapiro, et al., Biochem. Biophys. Acta., 370, 369-377 (1974), with modifications as described by Ingebritsen and Gibson, Meth. Enzymol, 71, 486-497 (1981) with the exception that the internal standard ^3 H-mevalonolactone is added after termination of the assay. […]
To measure reductase inhibition, test compounds dissolved in water or dimethylsulfoxide and diluted in buffer A (50 mM imidazole-HCl, 250 mM NaCl, 1 mM EDTA, 1 mM EGTA, 5 mM DTT, 20 μM leupeptin, pH=7.2) were incubated with aliquots of microsomes (80-160 μg protein in buffer A) followed by addition of d,1-[3-^14 C]-HMG-CoA (0.33 mM, 2.0 dpm/picomole) and NADPH (3.0 mM). The 50 percent inhibitory concentration (IC50) for each compound in Table 1 was calculated from the linear regression line of the percent decrease (from control) in enzyme activity vs. log concentration of inhibitor, determined using at least 4 dilutions of each test compound assayed in duplicate.

Structure (SMILES) | IC50 [µM]
N#CC(/C=C/[C@@H](O)C[C@@H](O)CC(=O)O)=C(c1ccc(F)cc1)c1ccc(F)cc1 (relative stereo) [Example 7, Sodium (±)-(E)-erythro-8-cyano-9,9-bis(4-fluorophenyl)-3,5-dihydroxy-6,8-nonadienoate] | 8
N#CC(/C=C/[C@H]1C[C@H](O)CC(=O)O1)=C(c1ccc(F)cc1)c1ccc(F)cc1 (relative stereo) [Example 8, Trans-(E)-2-[bis(4-fluorophenyl)methylene]-4-(tetrahydro-4-hydroxy-6-oxo-2H-pyran-2-yl)-3-butenenitrile] | 26
